Tested on: hepatocytes
Experiment: RNA-seq of hepatocytes treated with Phase III failure compounds
Settings: hepatocytes
Method: RNA-seq was performed to determine the effects of the compounds on hepatocytes.
Significance was determined by the criteria of FPKM≥0.5, a log 2(fold-change)≥1, and a […].

In the case of `COc1nc(N)nc2c1ncn2[C@@H]1O[C@H](COP(=O)(N[C@@H](C)C(=O)OCC(C)(C)C)Oc2cccc3ccccc23)[C@@H](O)[C@@]1(C)O` (some centres unmarked) [Bms-986094 (inx-189), Bms-986094], the “significant modulation of expression of disease genes” value (RNA-seq, q≤0.05, genes in the value or listed in the block) is reported as “significantly (q≤0.05) modulate expression”, the “A1BG expression, RNA-seq result” value (gene A1BG) is reported as −0.1 and the “AARS2 expression, RNA-seq result” value (gene AARS2) is reported as 0.13. For the same molecule, the “AASS expression, RNA-seq result” value (gene AASS) was −0.77, the “ABAT expression, RNA-seq result” value (gene ABAT) was −1.42 and the “ABCA1 expression, RNA-seq result” value (gene ABCA1) was −0.43. The “ABCB4 expression, RNA-seq result” value (gene ABCB4) was −0.43, the “ABCB11 expression, RNA-seq result” value (gene ABCB11) was −0.76 and the “ABCC2 expression, RNA-seq result” value (gene ABCC2) was −1.34. For the same molecule, the “ABCC3 expression, RNA-seq result” value (gene ABCC3) was −0.96, the “ABCC6 expression, RNA-seq result” value (gene ABCC6) was −1.45 and the “ABCD1 expression, RNA-seq result” value (gene ABCD1) was 0.08. For the same molecule, the “ABCD3 expression, RNA-seq result” value (gene ABCD3) was −0.4, the “ABCG5 expression, RNA-seq result” value (gene ABCG5) was −0.11 and the “ABCG8 expression, RNA-seq result” value (gene ABCG8) was −0.11. The “ABHD5 expression, RNA-seq result” value (gene ABHD5) was 0.25, the “ACACA expression, RNA-seq result” value (gene ACACA) was −2.09 and the “ACACB expression, RNA-seq result” value (gene ACACB) was −1.86. The “ACAD9 expression, RNA-seq result” value (gene ACAD9) was −0.83, the “ACADSB expression, RNA-seq result” value (gene ACADSB) was −0.04 and the “ACADVL expression, RNA-seq result” value (gene ACADVL) was 0.11. The “ACOT8 expression, RNA-seq result” value (gene ACOT8) was −0.33, the “ACOX2 expression, RNA-seq result” value (gene ACOX2) was −0.97 and the “ACOX3 expression, RNA-seq result” value (gene ACOX3) was −1.75. For the same molecule, the “ACSF3 expression, RNA-seq result” value (gene ACSF3) was −0.6, the “ACSL1 expression, RNA-seq result” value (gene ACSL1) was −0.12 and the “ACSL3 expression, RNA-seq result” value (gene ACSL3) was 0.16. For the same molecule, the “ACTG2 expression, RNA-seq result” value (gene ACTG2) was −0.13, the “ACTN1 expression, RNA-seq result” value (gene ACTN1) was −2.21 and the “ADA expression, RNA-seq result” value (gene ADA) was −0.72. For the same molecule, the “ADCK3 expression, RNA-seq result” value (gene ADCK3) was 0.18, the “ADK expression, RNA-seq result” value (gene ADK) was −1.7 and the “ADSL expression, RNA-seq result” value (gene ADSL) was −0.96. The “AFP expression, RNA-seq result” value (gene AFP) was −0.16, the “AGK expression, RNA-seq result” value (gene AGK) was −0.43 and the “AGL expression, RNA-seq result” value (gene AGL) was −0.97. The “AGPAT2 expression, RNA-seq result” value (gene AGPAT2) was −1.09, the “AGPS expression, RNA-seq result” value (gene AGPS) was −1.61 and the “AGT expression, RNA-seq result” value (gene AGT) was 0.27. For the same molecule, the “AGTR1 expression, RNA-seq result” value (gene AGTR1) was −0.07, the “AGXT expression, RNA-seq result” value (gene AGXT) was −0.66 and the “AHI1 expression, RNA-seq result” value (gene AHI1) was −0.61. For the same molecule, the “AHSG expression, RNA-seq result” value (gene AHSG) was −0.32, the “AK1 expression, RNA-seq result” value (gene AK1) was 0.62 and the “AKR1C1 expression, RNA-seq result” value (gene AKR1C1) was −0.96. The “AKR1C2 expression, RNA-seq result” value (gene AKR1C2) was −1.2, the “AKR1C4 expression, RNA-seq result” value (gene AKR1C4) was −1.68 and the “AKR1D1 expression, RNA-seq result” value (gene AKR1D1) was 0.17. For the same molecule, the “ALAD expression, RNA-seq result” value (gene ALAD) was −0.69, the “ALAS1 expression, RNA-seq result” value (gene ALAS1) was 0.11 and the “ALDH1B1 expression, RNA-seq result” value (gene ALDH1B1) was −0.86. For the same molecule, the “ALDH2 expression, RNA-seq result” value (gene ALDH2) was −0.04, the “ALDH6A1 expression, RNA-seq result” value (gene ALDH6A1) was −0.08 and the “ALDOA expression, RNA-seq result” value (gene ALDOA) was −0.48. The “ALDOB expression, RNA-seq result” value (gene ALDOB) was −0.27, the “ALG12 expression, RNA-seq result” value (gene ALG12) was −0.76 and the “ALMS1 expression, RNA-seq result” value (gene ALMS1) was −1.35. For the same molecule, the “ALPL expression, RNA-seq result” value (gene ALPL) was −1.05, the “AMACR expression, RNA-seq result” value (gene AMACR) was 0.28 and the “AMPD3 expression, RNA-seq result” value (gene AMPD3) was 0.57. For the same molecule, the “AMT expression, RNA-seq result” value (gene AMT) was −0.61, the “ANGPTL3 expression, RNA-seq result” value (gene ANGPTL3) was −0.73 and the “ANKS4B expression, RNA-seq result” value (gene ANKS4B) was −0.39. For the same molecule, the “ANKS6 expression, RNA-seq result” value (gene ANKS6) was −0.13, the “ANPEP expression, RNA-seq result” value (gene ANPEP) was −0.47 and the “AOC2 expression, RNA-seq result” value (gene AOC2) was 0.32. The “AP3B1 expression, RNA-seq result” value (gene AP3B1) was −1.36, the “APC expression, RNA-seq result” value (gene APC) was −0.04 and the “APOA1 expression, RNA-seq result” value (gene APOA1) was −0.05. For the same molecule, the “APOA2 expression, RNA-seq result” value (gene APOA2) was 0.31, the “APOA5 expression, RNA-seq result” value (gene APOA5) was −0.18 and the “APOB expression, RNA-seq result” value (gene APOB) was −0.78. For the same molecule, the “APOC2 expression, RNA-seq result” value (gene APOC2) was 0, the “APOC3 expression, RNA-seq result” value (gene APOC3) was 0.42 and the “APOE expression, RNA-seq result” value (gene APOE) was −0.56. For the same molecule, the “APRT expression, RNA-seq result” value (gene APRT) was −0.42, the “AQP7 expression, RNA-seq result” value (gene AQP7) was −0.35 and the “AQP9 expression, RNA-seq result” value (gene AQP9) was −0.05. For the same molecule, the “ARG1 expression, RNA-seq result” value (gene ARG1) was −1.7, the “ARG2 expression, RNA-seq result” value (gene ARG2) was 0.62 and the “ARL13B expression, RNA-seq result” value (gene ARL13B) was −0.67. The “ARSA expression, RNA-seq result” value (gene ARSA) was 0.27, the “ARSB expression, RNA-seq result” value (gene ARSB) was −0.25 and the “ASL expression, RNA-seq result” value (gene ASL) was −0.24. The “ASNS expression, RNA-seq result” value (gene ASNS) was 1.61, the “ASPA expression, RNA-seq result” value (gene ASPA) was 1.55 and the “ASXL1 expression, RNA-seq result” value (gene ASXL1) was −1.04. For the same molecule, the “ATG7 expression, RNA-seq result” value (gene ATG7) was −1.54, the “ATIC expression, RNA-seq result” value (gene ATIC) was −0.74 and the “ATM expression, RNA-seq result” value (gene ATM) was −0.5. The “ATP7A expression, RNA-seq result” value (gene ATP7A) was −0.03, the “ATP7B expression, RNA-seq result” value (gene ATP7B) was −0.8 and the “ATP8B1 expression, RNA-seq result” value (gene ATP8B1) was −2.3. For the same molecule, the “B2M expression, RNA-seq result” value (gene B2M) was 0.23, the “B9D2 expression, RNA-seq result” value (gene B9D2) was −0.83 and the “BAAT expression, RNA-seq result” value (gene BAAT) was −1.93. The “BBOX1 expression, RNA-seq result” value (gene BBOX1) was −0.77, the “BBS10 expression, RNA-seq result” value (gene BBS10) was 0.59 and the “BCHE expression, RNA-seq result” value (gene BCHE) was −0.67. The “BCKDHB expression, RNA-seq result” value (gene BCKDHB) was −1.21, the “BCKDK expression, RNA-seq result” value (gene BCKDK) was −0.42 and the “BCO1 expression, RNA-seq result” value (gene BCO1) was 0.72. For the same molecule, the “BCR expression, RNA-seq result” value (gene BCR) was −1.54, the “BLNK expression, RNA-seq result” value (gene BLNK) was 1.31 and the “BLOC1S3 expression, RNA-seq result” value (gene BLOC1S3) was 0.01. For the same molecule, the “BMPR1A expression, RNA-seq result” value (gene BMPR1A) was −0.9, the “BRAF expression, RNA-seq result” value (gene BRAF) was −0.44 and the “BSCL2 expression, RNA-seq result” value (gene BSCL2) was 0.07. For the same molecule, the “BTD expression, RNA-seq result” value (gene BTD) was −0.53, the “C4A expression, RNA-seq result” value (gene C4A) was 0.29 and the “C9 expression, RNA-seq result” value (gene C9) was 0.55. The “C10orf10 expression, RNA-seq result” value (gene C10orf10) was 0.23, the “C10orf11 expression, RNA-seq result” value (gene C10orf11) was −2.08 and the “C15orf41 expression, RNA-seq result” value (gene C15orf41) was −1.68. The “CA2 expression, RNA-seq result” value (gene CA2) was 0.9, the “CA5A expression, RNA-seq result” value (gene CA5A) was −1.34 and the “CA12 expression, RNA-seq result” value (gene CA12) was 0.58. For the same molecule, the “CAV1 expression, RNA-seq result” value (gene CAV1) was −0.74, the “CCND1 expression, RNA-seq result” value (gene CCND1) was −0.78 and the “CD46 expression, RNA-seq result” value (gene CD46) was 0.43. The “CD81 expression, RNA-seq result” value (gene CD81) was 0.03, the “CD320 expression, RNA-seq result” value (gene CD320) was −0.96 and the “CDAN1 expression, RNA-seq result” value (gene CDAN1) was 0.38. The “CDH1 expression, RNA-seq result” value (gene CDH1) was −1.79, the “CEP19 expression, RNA-seq result” value (gene CEP19) was −0.28 and the “CEP83 expression, RNA-seq result” value (gene CEP83) was −0.39. The “CEP164 expression, RNA-seq result” value (gene CEP164) was 0.23, the “CEP290 expression, RNA-seq result” value (gene CEP290) was 0.21 and the “CFB expression, RNA-seq result” value (gene CFB) was 0.29. For the same molecule, the “CFHR2 expression, RNA-seq result” value (gene CFHR2) was 0.7, the “CHRM3 expression, RNA-seq result” value (gene CHRM3) was −2.02 and the “CIDEC expression, RNA-seq result” value (gene CIDEC) was −0.6. For the same molecule, the “CLDN1 expression, RNA-seq result” value (gene CLDN1) was −0.83 and the “COG1 expression, RNA-seq result” value (gene COG1) was 0.5.

— patent publication US20210254056A1, “IDENTIFICATION AND TARGETED MODULATION OF GENE SIGNALING NETWORKS” (CAMP4 THERAPEUTICS CORPORATION, priority 2017, published 2021)
